From ChEMBL document CHEMBL1139142, “Discovery of 4-amino-5,6-biaryl-furo[2,3-d]pyrimidines as inhibitors of Lck: development of an expedient and divergent synthetic route and preliminary SAR” (Bioorg Med Chem Lett, 2007)

Legend:
[1] = molecular target: Tyrosine-protein kinase Lck (Homo sapiens, UniProt P06239); assay: Inhibition of Lck
T-cell [2] = assay: Inhibition of T cell activation in human mixed lymphocyte reaction; type: functional, cell-based
Activated CDC42 kinase 1 = Activated CDC42 kinase 1 (Homo sapiens, UniProt Q07912); assay: Inhibition of Ack1
T-cell [3] = assay: Inhibition of anti-CD3/CD28-induced IL2 secretion in human T cells; type: functional, cell-based
[4] = Clearance in Sprague-Dawley rat at 1 mg/kg, iv; type: ADME, organism-based; set-up: dose 1 mg/kg, route intravenous; settings: in vivo
[5] = Volume of distribution at steady state in Sprague-Dawley rat at 1 mg/kg, iv; type: ADME, organism-based; set-up: dose 1 mg/kg, route intravenous; settings: in vivo, read-out: Vdss
[6] = Half life in Sprague-Dawley rat at 1 mg/kg, iv; type: ADME, organism-based; set-up: dose 1 mg/kg, route intravenous; settings: in vivo
[7] = Oral bioavailability in Sprague-Dawley rat at 5 mg/kg; type: ADME, organism-based; settings: in vivo
[8] = Cmax in Sprague-Dawley rat at 5 mg/kg, po; type: ADME, organism-based; set-up: dose 5 mg/kg, route oral; settings: in vivo
[9] = AUC (0 to infinity) in Sprague-Dawley rat at 5 mg/kg, po; type: ADME, organism-based; set-up: time infinity, dose 5 mg/kg, route oral; settings: plasma
[10] = Inhibition of IGFR; set-up: species or system Homo sapiens
[11] = molecular target: Tyrosine-protein kinase JAK2 (Homo sapiens, UniProt O60674); assay: Inhibition of Jak2
Angiopoietin-1 receptor = Angiopoietin-1 receptor (Homo sapiens, UniProt Q02763); assay: Inhibition of Tie2
[12] = molecular target: Proto-oncogene tyrosine-protein kinase Src (Homo sapiens, UniProt P12931); assay: Inhibition of Src
[13] = molecular target: T1, Tyrosine-protein kinase JAK3 (Homo sapiens, UniProt P52333); assay: Inhibition of Jak3
T1 sequence (P52333 whole entry): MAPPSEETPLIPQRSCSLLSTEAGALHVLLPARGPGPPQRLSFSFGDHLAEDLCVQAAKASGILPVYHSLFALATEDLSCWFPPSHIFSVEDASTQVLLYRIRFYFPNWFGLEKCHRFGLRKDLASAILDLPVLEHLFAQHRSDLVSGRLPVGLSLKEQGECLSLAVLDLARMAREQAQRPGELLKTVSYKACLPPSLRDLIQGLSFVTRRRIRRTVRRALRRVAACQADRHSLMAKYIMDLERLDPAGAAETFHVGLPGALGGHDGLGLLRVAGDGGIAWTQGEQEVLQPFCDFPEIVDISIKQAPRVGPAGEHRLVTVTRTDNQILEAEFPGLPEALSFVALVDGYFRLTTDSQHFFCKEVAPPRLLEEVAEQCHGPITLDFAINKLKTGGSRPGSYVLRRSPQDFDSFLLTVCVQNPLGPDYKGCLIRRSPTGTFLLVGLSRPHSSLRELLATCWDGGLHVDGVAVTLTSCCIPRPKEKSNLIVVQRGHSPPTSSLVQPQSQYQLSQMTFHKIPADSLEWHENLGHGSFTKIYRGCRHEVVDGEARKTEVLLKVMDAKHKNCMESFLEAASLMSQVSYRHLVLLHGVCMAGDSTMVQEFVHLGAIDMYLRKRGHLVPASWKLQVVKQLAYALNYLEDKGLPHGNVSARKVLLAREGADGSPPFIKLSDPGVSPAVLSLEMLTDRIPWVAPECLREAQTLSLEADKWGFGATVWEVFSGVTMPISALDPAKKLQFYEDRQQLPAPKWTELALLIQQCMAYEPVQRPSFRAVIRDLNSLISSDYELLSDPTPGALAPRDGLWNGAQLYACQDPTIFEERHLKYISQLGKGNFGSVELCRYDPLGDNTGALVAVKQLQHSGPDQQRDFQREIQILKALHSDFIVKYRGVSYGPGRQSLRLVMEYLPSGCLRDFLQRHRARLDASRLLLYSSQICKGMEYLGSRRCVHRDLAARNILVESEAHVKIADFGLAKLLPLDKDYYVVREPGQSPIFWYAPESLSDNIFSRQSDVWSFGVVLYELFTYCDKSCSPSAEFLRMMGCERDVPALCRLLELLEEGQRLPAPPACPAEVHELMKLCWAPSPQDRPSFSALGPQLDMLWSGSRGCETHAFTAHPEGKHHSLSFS

[14] = molecular target: T2, Tyrosine-protein kinase ZAP-70 (Homo sapiens, UniProt P43403); assay: Inhibition of ZAP70
T2 sequence (P43403 whole entry): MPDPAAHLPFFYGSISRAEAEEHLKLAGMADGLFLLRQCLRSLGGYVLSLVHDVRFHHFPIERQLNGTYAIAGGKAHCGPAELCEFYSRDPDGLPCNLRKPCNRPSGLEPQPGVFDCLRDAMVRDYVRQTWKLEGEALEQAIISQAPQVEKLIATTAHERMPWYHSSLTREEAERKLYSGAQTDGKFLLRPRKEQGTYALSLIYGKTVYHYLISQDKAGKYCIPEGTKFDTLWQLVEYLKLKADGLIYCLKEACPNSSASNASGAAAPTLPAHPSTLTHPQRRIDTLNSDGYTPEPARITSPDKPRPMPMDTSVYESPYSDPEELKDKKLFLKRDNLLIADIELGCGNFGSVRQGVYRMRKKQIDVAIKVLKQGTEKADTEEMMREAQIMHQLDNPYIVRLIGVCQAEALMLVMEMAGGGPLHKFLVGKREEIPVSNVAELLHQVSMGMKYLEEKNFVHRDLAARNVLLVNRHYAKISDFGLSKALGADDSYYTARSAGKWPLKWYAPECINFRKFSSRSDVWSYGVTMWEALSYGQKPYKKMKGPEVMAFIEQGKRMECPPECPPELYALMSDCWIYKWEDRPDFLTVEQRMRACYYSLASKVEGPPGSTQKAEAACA

[15] = molecular target: Vascular endothelial growth factor receptor 2 (Homo sapiens, UniProt P35968); assay: Inhibition of KDR
[16] = molecular target: Epidermal growth factor receptor (Homo sapiens, UniProt P00533)
Chain of Epidermal growth factor receptor (P00533 whole entry): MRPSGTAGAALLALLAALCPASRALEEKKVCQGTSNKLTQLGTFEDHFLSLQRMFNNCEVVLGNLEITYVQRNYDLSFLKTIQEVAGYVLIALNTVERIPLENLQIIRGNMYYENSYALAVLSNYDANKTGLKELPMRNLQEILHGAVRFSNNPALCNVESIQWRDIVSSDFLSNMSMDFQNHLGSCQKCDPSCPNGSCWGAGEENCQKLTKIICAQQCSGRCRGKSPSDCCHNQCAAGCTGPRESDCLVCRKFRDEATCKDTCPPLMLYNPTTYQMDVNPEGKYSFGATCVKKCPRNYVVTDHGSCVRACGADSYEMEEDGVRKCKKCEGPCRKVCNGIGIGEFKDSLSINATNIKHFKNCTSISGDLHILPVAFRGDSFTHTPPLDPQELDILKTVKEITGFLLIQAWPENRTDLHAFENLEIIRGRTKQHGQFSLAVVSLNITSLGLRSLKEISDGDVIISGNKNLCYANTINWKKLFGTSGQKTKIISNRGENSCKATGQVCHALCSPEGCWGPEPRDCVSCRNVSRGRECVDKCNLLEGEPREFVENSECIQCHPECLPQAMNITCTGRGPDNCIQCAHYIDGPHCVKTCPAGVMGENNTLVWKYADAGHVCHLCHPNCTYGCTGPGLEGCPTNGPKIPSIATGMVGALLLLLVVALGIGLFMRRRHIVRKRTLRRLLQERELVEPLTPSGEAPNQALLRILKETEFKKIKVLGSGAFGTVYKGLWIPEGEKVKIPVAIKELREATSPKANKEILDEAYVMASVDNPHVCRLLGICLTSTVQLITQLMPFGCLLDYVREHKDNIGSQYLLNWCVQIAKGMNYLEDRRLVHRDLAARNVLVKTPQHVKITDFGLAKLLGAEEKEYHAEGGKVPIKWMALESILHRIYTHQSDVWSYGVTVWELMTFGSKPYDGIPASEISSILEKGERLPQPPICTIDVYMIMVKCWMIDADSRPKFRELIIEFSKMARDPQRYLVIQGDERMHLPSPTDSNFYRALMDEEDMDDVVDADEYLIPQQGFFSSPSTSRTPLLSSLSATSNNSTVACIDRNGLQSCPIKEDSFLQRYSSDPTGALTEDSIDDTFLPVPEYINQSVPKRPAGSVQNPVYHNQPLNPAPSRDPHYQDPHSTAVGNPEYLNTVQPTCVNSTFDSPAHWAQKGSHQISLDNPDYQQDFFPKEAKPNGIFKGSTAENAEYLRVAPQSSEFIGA

Chain of Activated CDC42 kinase 1 (Q07912 whole entry): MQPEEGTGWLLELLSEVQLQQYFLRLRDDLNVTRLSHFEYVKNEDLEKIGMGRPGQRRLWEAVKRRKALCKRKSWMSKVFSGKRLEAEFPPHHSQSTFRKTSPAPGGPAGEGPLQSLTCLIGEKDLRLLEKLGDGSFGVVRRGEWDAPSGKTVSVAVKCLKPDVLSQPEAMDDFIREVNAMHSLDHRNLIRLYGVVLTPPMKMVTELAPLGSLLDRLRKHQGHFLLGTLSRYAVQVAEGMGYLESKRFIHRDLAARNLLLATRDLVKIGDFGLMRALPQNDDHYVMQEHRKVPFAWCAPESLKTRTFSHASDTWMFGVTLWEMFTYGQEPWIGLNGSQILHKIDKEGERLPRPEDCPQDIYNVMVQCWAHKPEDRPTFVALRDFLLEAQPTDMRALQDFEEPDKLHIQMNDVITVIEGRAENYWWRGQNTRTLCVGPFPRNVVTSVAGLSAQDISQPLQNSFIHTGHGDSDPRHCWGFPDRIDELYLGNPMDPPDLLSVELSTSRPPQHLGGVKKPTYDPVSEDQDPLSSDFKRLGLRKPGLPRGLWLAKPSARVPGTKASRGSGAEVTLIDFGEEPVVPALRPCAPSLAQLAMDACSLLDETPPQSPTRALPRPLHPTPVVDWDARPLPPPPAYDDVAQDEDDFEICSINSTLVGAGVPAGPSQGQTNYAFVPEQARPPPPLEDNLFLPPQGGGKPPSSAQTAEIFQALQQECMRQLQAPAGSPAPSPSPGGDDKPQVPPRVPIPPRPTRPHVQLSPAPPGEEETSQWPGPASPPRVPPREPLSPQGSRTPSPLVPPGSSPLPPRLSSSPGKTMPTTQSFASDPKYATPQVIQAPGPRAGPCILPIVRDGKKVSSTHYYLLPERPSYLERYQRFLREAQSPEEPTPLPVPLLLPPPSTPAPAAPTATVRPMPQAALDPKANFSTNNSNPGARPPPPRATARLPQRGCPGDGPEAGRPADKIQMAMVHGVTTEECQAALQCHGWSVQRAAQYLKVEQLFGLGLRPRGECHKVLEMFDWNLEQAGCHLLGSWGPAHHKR
Chain of Tyrosine-protein kinase Lck (P06239 whole entry): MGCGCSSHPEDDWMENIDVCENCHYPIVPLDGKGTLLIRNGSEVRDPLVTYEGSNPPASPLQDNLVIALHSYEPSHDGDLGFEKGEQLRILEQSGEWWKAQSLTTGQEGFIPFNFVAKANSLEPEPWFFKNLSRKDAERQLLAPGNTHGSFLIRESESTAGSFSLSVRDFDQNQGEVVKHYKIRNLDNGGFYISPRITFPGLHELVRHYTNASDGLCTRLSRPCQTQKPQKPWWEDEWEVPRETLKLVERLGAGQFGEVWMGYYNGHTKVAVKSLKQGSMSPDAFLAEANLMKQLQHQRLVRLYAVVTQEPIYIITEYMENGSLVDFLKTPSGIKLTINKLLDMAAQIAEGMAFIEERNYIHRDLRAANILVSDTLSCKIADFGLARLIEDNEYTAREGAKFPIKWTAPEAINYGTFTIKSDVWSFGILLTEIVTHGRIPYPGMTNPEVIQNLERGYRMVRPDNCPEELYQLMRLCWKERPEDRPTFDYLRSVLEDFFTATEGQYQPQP
Chain of Proto-oncogene tyrosine-protein kinase Src (P12931 2-536 limits assumed): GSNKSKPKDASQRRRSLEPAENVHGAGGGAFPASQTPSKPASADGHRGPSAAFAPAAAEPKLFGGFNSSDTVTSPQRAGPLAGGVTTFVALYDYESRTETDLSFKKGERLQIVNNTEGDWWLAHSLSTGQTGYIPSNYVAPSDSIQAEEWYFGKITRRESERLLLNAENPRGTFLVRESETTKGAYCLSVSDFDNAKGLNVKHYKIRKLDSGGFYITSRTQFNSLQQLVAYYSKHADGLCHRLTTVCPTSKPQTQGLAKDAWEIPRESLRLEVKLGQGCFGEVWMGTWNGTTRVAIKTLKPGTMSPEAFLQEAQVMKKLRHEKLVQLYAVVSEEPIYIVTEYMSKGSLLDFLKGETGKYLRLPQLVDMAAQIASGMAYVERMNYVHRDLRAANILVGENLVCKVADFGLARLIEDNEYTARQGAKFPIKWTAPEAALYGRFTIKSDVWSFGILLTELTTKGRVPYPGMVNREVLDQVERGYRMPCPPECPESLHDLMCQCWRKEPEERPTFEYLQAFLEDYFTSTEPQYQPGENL
Chain of Angiopoietin-1 receptor (Q02763 whole entry): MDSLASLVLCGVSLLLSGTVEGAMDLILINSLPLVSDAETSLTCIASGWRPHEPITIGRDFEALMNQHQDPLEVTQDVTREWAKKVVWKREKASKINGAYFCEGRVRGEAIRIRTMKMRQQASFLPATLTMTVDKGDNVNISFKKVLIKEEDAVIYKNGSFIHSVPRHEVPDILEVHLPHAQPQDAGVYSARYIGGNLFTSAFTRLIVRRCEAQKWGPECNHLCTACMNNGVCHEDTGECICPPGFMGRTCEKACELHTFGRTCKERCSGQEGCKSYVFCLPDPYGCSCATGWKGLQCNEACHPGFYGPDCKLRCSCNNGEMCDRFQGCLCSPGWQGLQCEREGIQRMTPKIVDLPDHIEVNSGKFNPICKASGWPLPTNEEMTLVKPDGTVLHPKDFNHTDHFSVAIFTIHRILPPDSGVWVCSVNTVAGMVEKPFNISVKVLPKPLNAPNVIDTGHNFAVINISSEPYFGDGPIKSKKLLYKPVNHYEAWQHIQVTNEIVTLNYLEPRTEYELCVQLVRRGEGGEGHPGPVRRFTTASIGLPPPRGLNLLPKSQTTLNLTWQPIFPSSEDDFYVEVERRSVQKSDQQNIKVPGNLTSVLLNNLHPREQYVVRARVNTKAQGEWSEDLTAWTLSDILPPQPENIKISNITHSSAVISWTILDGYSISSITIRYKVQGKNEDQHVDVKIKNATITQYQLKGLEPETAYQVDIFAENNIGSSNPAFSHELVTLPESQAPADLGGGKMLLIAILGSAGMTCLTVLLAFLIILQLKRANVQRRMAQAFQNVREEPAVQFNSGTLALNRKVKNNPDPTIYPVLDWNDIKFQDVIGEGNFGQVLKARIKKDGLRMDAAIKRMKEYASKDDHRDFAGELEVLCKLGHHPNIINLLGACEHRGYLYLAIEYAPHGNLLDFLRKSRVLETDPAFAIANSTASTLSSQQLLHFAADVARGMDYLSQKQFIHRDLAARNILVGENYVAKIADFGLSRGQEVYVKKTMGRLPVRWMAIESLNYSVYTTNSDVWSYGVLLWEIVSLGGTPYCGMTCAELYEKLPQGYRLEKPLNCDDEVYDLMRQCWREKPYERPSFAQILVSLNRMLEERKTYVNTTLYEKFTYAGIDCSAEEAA

Structure (SMILES) | IC50 [1] [µM] | IC50 (T-cell [2]) [µM] | IC50 (Activated CDC42 kinase 1) [µM] | IC50 (T-cell [3]) [µM] | further results
c1ccc(-c2oc3ncnc(NC[C@H]4CCCO4)c3c2-c2ccccc2)cc1 | 1.21 | 2.13 | 0.523 | – | –
c1ccc(-c2oc3ncnc(NC[C@@H]4CCCO4)c3c2-c2ccccc2)cc1 | 0.122 | 8.95 | 0.024 | 2.41 | –
c1ccc(-c2oc3ncnc(NCCN4CCNCC4)c3c2-c2ccccc2)cc1 | – | 1.71 | 0.181 | 0.69 | clearance [4]: 14.8 mL/min/kg; Vd [5]: 2.77 L/kg; half-life [6]: 2.37 h; bioavailability [7]: 15%; Cmax [8]: 180 ng/mL; AUC(0-inf) [9]: 1040 ng·h/mL
c1ccc(-c2c(-c3ccc(OCCN4CCCC4)cc3)oc3ncnc(NCCN4CCNCC4)c23)cc1 | 0.009 | 0.227 | 0.098 | 0.43 | IC50 [10]: 3.15 µM; IC50 [11]: > 8.33 µM; IC50 (Angiopoietin-1 receptor): > 25 µM; IC50 [12]: 0.045 µM; IC50 [13]: 0.96 µM; IC50 [14]: 0.992 µM; IC50 [15]: 3.1 µM; IC50 [16]: 0.397 µM
c1ccc(-c2c(-c3ccc(OCCN4CCCC4)cc3)oc3ncnc(NCCC4CCNCC4)c23)cc1 | 0.014 | 2.45 | 0.332 | – | –
CN(C)CCOc1ccc(-c2oc3ncnc(NC[C@@H]4CCCO4)c3c2-c2ccccc2)cc1 | 0.006 | 0.464 | 0.011 | 0.119 | –
c1ccc(-c2c(-c3ccc(OCCN4CCCC4)cc3)oc3ncnc(NC[C@@H]4CCCO4)c23)cc1 | 0.011 | 0.67 | 0.016 | 0.435 | –
c1ccc(CCNc2ncnc3oc(-c4ccc(OCCN5CCCC5)cc4)c(-c4ccccc4)c23)cc1 | 0.005 | 1.67 | 0.001 | 5.72 | –
CN1CCN(Cc2ccc(-c3oc4ncnc(NC[C@@H]5CCCO5)c4c3-c3ccccc3)cc2)CC1 | 0.006 | 0.337 | 0.007 | 0.293 | –
CC(C)Nc1ncnc2oc(-c3ccc(OCCN4CCCC4)cc3)c(-c3ccccc3)c12 | 0.036 | 0.533 | 0.078 | 0.199 | IC50 [10]: 1.49 µM; IC50 [11]: 4.89 µM; IC50 (Angiopoietin-1 receptor): > 8.33 µM; IC50 [12]: 0.914 µM; IC50 [13]: 1.43 µM; IC50 [14]: 3.27 µM; IC50 [15]: 0.537 µM; IC50 [16]: 1.03 µM
CCN1CCN(C(=O)c2ccc(-c3oc4ncnc(NC[C@@H]5CCCO5)c4c3-c3ccccc3)cc2)CC1 | 0.011 | 0.437 | 0.013 | 2.42 | –
c1ccc(-c2c(-c3ccc(N4CCOCC4)cc3)oc3ncnc(NCCN4CCNCC4)c23)cc1 | 0.011 | 0.227 | 0.017 | – | –
CN1CCOc2cc(-c3oc4ncnc(NCCN5CCNCC5)c4c3-c3ccccc3)ccc21 | 0.042 | 3.08 | 0.097 | – | –
c1ccc(-c2c(-c3ccc(CN4CCOCC4)cc3)oc3ncnc(NCCN4CCNCC4)c23)cc1 | 0.027 | 0.138 | 0.091 | – | –
O=C(c1ccc(-c2oc3ncnc(NCCN4CCNCC4)c3c2-c2ccccc2)cc1)N1CCCCC1 | 0.022 | 0.121 | 0.085 | – | –
CN(C)CCOc1ccc(-c2oc3ncnc(NCCN4CCNCC4)c3c2-c2ccccc2)cc1 | 0.014 | 0.36 | 0.148 | 0.468 | –
COc1cc(-c2oc3ncnc(NCCN4CCNCC4)c3c2-c2ccccc2)ccc1OCCN1CCCCC1 | 0.022 | 3.22 | 0.586 | 2.63 | –
CC(C)(C)Nc1ncnc2oc(-c3ccc(OCCN4CCCC4)cc3)c(-c3ccccc3)c12 | 0.083 | 2.38 | 0.65 | 3.26 | –
COc1cc(-c2oc3ncnc(NC[C@@H]4CCCO4)c3c2-c2ccccc2)ccc1OCCN1CCCCC1 | 0.008 | 0.825 | 0.038 | 0.193 | –
